Legend:
Test in all cases: radiometric filter-binding kinase assay, Kinase HotSpot
Settings in all cases: compound 0.5 µM; ATP 10 µM
[1] = target: ROCK1 (human) (UniProt Q13464)
[2] = target: CAMK2D (human) (UniProt Q13557)
[3] = target: CSNK1G3 (human) (UniProt Q9Y6M4)
[4] = target: ABL2 (human) (UniProt P42684)
[5] = target: PAK4 (human) (UniProt O96013)
[6] = target: PIM3 (human) (UniProt Q86V86)
[7] = target: CSNK2A2 (human) (UniProt P19784)
[8] = target: STK17A (human) (UniProt Q9UEE5)
[9] = target: ROS1 (human) (UniProt P08922)
[10] = target: IRAK1 (human) (UniProt P51617)
[11] = target: PRKCB2 (human) (UniProt P05771)
[12] = target: MAPK3 (human) (UniProt P27361)
[13] = target: SIK2 (human) (UniProt Q9H0K1)
[14] = target: MARK4 (human) (UniProt Q96L34)
[15] = target: TSSK2 (human) (UniProt Q96PF2)
Sequence of TSSK2 (human) (Q96PF2 whole entry, looked up): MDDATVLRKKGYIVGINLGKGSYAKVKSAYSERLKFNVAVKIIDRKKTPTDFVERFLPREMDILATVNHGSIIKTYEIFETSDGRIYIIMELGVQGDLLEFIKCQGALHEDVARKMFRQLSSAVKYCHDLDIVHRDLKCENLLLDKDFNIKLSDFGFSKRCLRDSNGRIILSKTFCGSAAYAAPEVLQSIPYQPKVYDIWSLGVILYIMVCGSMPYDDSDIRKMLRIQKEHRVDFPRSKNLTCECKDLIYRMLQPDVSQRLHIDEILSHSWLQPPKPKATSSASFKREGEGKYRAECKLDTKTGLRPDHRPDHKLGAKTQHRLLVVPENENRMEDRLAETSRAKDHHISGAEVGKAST

[16] = target: DYRK4 (human) (UniProt Q9NR20)
[17] = target: CSNK1A1 (human) (UniProt P48729)
[18] = target: EPHB1 (human) (UniProt P54762)
Sequence of EPHB1 (human) (P54762 whole entry, looked up): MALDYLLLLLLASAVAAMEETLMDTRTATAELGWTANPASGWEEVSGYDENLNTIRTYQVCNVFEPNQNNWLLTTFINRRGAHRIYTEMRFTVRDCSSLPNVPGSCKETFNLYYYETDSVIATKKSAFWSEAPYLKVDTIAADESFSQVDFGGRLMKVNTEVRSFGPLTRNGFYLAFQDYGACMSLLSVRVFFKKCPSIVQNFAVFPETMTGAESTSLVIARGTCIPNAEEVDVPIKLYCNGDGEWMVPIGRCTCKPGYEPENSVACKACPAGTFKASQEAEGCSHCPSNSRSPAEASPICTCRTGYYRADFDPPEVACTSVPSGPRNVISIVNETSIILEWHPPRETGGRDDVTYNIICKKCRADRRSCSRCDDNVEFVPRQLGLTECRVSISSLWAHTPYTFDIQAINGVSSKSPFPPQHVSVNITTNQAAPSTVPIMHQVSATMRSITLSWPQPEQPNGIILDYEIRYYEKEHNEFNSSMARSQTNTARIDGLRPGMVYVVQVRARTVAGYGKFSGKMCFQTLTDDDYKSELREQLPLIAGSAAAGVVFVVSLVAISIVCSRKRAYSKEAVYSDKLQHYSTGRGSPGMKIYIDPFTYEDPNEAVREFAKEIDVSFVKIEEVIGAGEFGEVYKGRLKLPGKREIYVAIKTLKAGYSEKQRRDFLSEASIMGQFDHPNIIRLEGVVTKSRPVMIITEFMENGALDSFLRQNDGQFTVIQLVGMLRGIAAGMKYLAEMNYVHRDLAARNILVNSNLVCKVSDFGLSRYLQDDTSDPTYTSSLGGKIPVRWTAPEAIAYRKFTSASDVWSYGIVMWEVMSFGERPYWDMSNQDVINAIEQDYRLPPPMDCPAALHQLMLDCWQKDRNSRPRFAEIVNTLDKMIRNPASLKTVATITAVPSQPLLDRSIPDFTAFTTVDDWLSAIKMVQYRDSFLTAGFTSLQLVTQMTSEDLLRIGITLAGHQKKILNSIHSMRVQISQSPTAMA

[19] = target: MAPKAPK5 (human) (UniProt Q8IW41)
Sequence of MAPKAPK5 (human) (Q8IW41 whole entry, looked up): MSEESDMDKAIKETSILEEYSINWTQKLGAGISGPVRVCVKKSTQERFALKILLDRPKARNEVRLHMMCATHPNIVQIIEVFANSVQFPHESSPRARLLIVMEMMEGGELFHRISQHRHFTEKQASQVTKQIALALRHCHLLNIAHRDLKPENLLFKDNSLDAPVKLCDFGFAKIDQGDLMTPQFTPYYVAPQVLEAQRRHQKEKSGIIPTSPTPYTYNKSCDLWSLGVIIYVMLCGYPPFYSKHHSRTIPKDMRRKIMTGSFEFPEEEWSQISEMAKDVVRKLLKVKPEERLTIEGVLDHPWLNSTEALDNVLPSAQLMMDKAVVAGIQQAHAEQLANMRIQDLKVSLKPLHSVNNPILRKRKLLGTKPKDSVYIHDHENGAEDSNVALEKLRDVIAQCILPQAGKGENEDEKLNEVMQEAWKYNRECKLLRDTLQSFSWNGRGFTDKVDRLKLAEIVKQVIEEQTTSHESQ

[20] = target: MAPK11 (human) (UniProt Q15759)
[21] = target: STK39 (human) (UniProt Q9UEW8)
[22] = target: ROCK2 (human) (UniProt O75116)
[23] = target: PRKCH (human) (UniProt P24723)
[24] = target: PRKD2 (human) (UniProt Q9BZL6)
[25] = target: PRKCD (human) (UniProt Q05655)
[26] = target: CDK4 CCND1 (human) (UniProt P24385+P11802)
Sequence of CDK4 CCND1 (human) (P11802 whole entry, looked up): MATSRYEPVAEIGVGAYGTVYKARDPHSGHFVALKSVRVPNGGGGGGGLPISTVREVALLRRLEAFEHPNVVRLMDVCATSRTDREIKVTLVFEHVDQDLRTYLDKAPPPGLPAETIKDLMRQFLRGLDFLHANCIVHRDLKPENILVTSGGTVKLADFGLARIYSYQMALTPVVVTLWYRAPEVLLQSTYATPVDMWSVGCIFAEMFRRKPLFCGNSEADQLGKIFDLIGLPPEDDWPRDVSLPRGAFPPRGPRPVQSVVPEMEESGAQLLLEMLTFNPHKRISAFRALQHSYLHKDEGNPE
Sequence of CDK4 CCND1 (human) (P24385 whole entry, looked up): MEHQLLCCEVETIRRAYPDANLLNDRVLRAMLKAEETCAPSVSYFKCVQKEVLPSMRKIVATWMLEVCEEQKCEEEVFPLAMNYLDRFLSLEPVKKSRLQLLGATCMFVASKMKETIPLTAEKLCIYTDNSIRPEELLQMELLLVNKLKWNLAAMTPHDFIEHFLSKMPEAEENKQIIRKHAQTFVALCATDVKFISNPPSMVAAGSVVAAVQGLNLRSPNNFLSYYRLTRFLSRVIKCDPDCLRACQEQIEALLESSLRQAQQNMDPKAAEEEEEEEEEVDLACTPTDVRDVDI

[27] = target: IKBKB (human) (UniProt O14920)
[28] = target: JAK2 JH1 JH2 (human) (UniProt O60674)
Sequence of JAK2 JH1 JH2 (human) (O60674 whole entry, looked up): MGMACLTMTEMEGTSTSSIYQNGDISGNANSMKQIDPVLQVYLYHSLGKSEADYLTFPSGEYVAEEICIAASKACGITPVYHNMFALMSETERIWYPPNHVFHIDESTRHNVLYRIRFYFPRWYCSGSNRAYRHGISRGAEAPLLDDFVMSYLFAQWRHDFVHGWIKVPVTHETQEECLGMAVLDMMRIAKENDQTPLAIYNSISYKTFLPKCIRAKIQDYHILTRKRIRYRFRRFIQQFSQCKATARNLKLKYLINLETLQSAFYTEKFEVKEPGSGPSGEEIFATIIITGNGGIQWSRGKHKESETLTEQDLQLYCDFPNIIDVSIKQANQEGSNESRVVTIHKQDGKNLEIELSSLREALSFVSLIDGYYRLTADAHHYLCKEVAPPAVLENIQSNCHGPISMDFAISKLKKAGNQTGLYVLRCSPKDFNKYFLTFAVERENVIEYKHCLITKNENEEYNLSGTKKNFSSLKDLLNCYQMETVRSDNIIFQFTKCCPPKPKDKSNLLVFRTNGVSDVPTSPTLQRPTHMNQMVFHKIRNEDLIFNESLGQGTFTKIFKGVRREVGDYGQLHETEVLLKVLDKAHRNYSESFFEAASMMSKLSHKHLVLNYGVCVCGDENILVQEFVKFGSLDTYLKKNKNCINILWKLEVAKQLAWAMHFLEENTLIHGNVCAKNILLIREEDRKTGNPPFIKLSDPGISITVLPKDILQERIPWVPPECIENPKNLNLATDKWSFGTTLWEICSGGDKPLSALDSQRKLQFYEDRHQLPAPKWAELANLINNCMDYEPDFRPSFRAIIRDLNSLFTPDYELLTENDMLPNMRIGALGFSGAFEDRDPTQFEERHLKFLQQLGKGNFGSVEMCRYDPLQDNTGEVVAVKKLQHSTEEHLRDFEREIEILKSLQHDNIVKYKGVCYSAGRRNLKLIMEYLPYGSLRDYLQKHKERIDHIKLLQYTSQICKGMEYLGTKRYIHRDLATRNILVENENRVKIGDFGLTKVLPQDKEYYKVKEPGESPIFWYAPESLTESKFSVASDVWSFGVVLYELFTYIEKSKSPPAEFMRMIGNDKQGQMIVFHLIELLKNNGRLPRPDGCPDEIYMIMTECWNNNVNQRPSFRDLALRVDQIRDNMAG

[29] = target: BRAF (human) (UniProt P15056)
[30] = target: DYRK1B (human) (UniProt Q9Y463)
[31] = target: PAK7 (human) (UniProt Q9P286)
[32] = target: MAP3K11 (human) (UniProt Q16584)
[33] = target: CLK4 (human) (UniProt Q9HAZ1)
[34] = target: CHEK1 (human) (UniProt O14757)
[35] = target: TBK1 (human) (UniProt Q9UHD2)
Sequence of TBK1 (human) (Q9UHD2 whole entry, looked up): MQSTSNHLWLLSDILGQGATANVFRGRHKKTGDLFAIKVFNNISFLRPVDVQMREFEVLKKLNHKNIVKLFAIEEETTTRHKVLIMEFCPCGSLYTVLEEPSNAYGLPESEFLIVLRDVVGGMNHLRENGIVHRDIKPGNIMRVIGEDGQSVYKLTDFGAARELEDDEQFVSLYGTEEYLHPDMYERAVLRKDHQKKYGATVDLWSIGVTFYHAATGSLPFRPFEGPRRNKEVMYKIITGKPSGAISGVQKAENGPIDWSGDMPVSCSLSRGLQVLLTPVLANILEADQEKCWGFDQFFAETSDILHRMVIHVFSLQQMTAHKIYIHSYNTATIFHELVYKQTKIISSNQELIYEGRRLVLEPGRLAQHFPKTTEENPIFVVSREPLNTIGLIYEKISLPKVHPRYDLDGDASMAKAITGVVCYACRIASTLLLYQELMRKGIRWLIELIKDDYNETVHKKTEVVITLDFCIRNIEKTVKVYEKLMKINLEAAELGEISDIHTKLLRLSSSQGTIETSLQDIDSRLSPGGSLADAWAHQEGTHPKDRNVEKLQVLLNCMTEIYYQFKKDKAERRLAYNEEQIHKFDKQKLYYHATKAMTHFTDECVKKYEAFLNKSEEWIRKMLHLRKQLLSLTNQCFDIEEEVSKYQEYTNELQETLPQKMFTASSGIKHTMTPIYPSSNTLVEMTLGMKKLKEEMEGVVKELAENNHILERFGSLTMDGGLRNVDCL

[36] = target: NUAK1 (human) (UniProt O60285)
Sequence of NUAK1 (human) (O60285 whole entry, looked up): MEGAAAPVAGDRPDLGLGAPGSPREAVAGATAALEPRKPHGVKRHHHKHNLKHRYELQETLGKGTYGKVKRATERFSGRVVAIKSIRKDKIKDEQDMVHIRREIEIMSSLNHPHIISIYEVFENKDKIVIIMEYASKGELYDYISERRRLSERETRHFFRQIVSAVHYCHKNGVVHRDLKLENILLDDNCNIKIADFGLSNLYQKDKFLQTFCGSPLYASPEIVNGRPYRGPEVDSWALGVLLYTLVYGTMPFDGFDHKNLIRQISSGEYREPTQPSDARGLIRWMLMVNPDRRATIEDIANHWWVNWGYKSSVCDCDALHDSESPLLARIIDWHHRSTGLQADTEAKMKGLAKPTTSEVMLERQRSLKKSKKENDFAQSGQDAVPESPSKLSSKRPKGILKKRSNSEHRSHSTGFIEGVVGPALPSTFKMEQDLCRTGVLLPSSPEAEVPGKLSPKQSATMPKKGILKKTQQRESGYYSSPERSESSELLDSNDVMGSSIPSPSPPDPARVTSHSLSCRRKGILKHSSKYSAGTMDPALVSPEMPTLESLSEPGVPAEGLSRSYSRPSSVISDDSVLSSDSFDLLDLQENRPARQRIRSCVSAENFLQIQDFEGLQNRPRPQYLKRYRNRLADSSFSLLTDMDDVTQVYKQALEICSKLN

[37] = target: MAPK10 (human) (UniProt P53779)
[38] = target: ABL1 (human) (UniProt P00519)
[39] = target: JAK1 JH1 catalytic (human) (UniProt P23458)
[40] = target: MAPK8 (human) (UniProt P45983)

## CCC(=O)Nc1ccc2ncnc(Nc3cccc(Br)c3)c2c1
[1]
  residual activity: 99.5%
[2]
  residual activity: 113%
[3]
  residual activity: 91.6%
[4]
  residual activity: 96.6%
[5]
  residual activity: 105%
[6]
  residual activity: 76.6%
[7]
  residual activity: 61.4%
[8]
  residual activity: 88.7%
[9]
  residual activity: 97.5%
[10]
  residual activity: 92.7%
[11]
  residual activity: 101%
[12]
  residual activity: 101%
[13]
  residual activity: 98.7%
[14]
  residual activity: 80.2%
[15]
  residual activity: 82.8%
[16]
  residual activity: 113%
[17]
  residual activity: 97%
[18]
  residual activity: 93.3%
[19]
  residual activity: 105%
[20]
  residual activity: 92.9%
[21]
  residual activity: 96.1%
[22]
  residual activity: 86.1%
[23]
  residual activity: 89.3%
[24]
  residual activity: 85.1%
[25]
  residual activity: 93.8%
[26]
  residual activity: 101%
[27]
  residual activity: 94.9%
[28]
  residual activity: 103%
[29]
  residual activity: 93%
[30]
  residual activity: 95.2%
[31]
  residual activity: 91.6%
[32]
  residual activity: 97.1%
[33]
  residual activity: 99.4%
[34]
  residual activity: 114%
[35]
  residual activity: 95.6%
[36]
  residual activity: 87.3%
[37]
  residual activity: 96.5%
[38]
  residual activity: 98.9%
[39]
  residual activity: 96.6%
[40]
  residual activity: 73.7%

## N#C/C(=C(/N)Sc1ccc(N)cc1)c1ccccc1C(F)(F)F
[1]
  residual activity: 104%
[2]
  residual activity: 93.4%
[3]
  residual activity: 103%
[4]
  residual activity: 101%
[5]
  residual activity: 99.4%
[6]
  residual activity: 111%
[7]
  residual activity: 86%
[8]
  residual activity: 82.6%
[9]
  residual activity: 94.4%
[10]
  residual activity: 100%
[11]
  residual activity: 103%
[12]
  residual activity: 116%
[13]
  residual activity: 101%
[14]
  residual activity: 101%
[15]
  residual activity: 94.2%
[16]
  residual activity: 92.4%
[17]
  residual activity: 82.9%
[18]
  residual activity: 98.8%
[19]
  residual activity: 89.9%
[20]
  residual activity: 112%
[21]
  residual activity: 94.6%
[22]
  residual activity: 100%
[23]
  residual activity: 96.4%
[24]
  residual activity: 93.4%
[25]
  residual activity: 97.5%
[26]
  residual activity: 106%
[27]
  residual activity: 100%
[28]
  residual activity: 98.7%
[29]
  residual activity: 95%
[30]
  residual activity: 99.6%
[31]
  residual activity: 104%
[32]
  residual activity: 99.9%
[33]
  residual activity: 93.4%
[34]
  residual activity: 97.5%
[35]
  residual activity: 98.1%
[36]
  residual activity: 95.9%
[37]
  residual activity: 94.7%
[38]
  residual activity: 106%
[39]
  residual activity: 106%
[40]
  residual activity: 112%

## Cc1[nH]c(/C=C2\C(=O)Nc3ccc(S(=O)(=O)N(C)c4cccc(Cl)c4)cc32)c(C)c1C(=O)N1CCN(C)CC1
[1]
  residual activity: 84%
[2]
  residual activity: 68.4%
[3]
  residual activity: 93.3%
[4]
  residual activity: 73.2%
[5]
  residual activity: 101%
[6]
  residual activity: 106%
[7]
  residual activity: 84.6%
[8]
  residual activity: 97%
[9]
  residual activity: 69.6%
[10]
  residual activity: 57.7%
[11]
  residual activity: 99.1%
[12]
  residual activity: 106%
[13]
  residual activity: 86%
[14]
  residual activity: 36.2%
[15]
  residual activity: 96.3%
[16]
  residual activity: 96.1%
[17]
  residual activity: 79.2%
[18]
  residual activity: 84.5%
[19]
  residual activity: 77.6%
[20]
  residual activity: 103%
[21]
  residual activity: 84.7%
[22]
  residual activity: 58.2%
[23]
  residual activity: 88.7%
[24]
  residual activity: 58.3%
[25]
  residual activity: 95.3%
[26]
  residual activity: 88.5%
[27]
  residual activity: 107%
[28]
  residual activity: 40.6%
[29]
  residual activity: 91.9%
[30]
  residual activity: 98.9%
[31]
  residual activity: 97.1%
[32]
  residual activity: 79.1%
[33]
  residual activity: 34.3%
[34]
  residual activity: 89.7%
[35]
  residual activity: 60.4%
[36]
  residual activity: 15.9%
[37]
  residual activity: 99%
[38]
  residual activity: 89.1%
[39]
  residual activity: 68%
[40]
  residual activity: 86.9%

Source: the kinase profiling compilation of Christmann-Franck et al. (2016)
